From patent US6825181B1, “Aminoisoquinoline derivatives” (Ajinomoto Co., Inc., priority 1998, dated 2004)

How the values were obtained:
Type in all cases: biochemical
human thrombin = molecular target: T1, human thrombin (Homo sapiens, UniProt P00734); assay: Determination of thrombin-inhibiting activity; details: negative logarithm of concentration inhibiting 50% of initial rate; substrate S-2238, pH 8.4; read-out: Thrombin-inhibiting activity (pIC50) (converted)
T1 construct: solution of human thrombin (a product of SIGMA Co.); purchased SIGMA Co
Description: Determination of Thrombin-Inhibiting Activity:
130 μl of 100 mM tris hydrochloride buffer adjusted to pH 8.4 was added to 10 μl of an aqueous solution of a test compound. Then 10 μl of a solution of human thrombin (a product of SIGMA Co.) adjusted to 2 units/ml with tris hydrochloride buffer of pH 8.4 was added to the resultant mixture. After the incubation at room temperature for 10 minutes, 50 μl of a solution of D-phenylalanyl-L-pipecolyl-L-arginyl-P-nitroanilide dihydrochloride (S-2238; a product of Daiichi Kagaku Yakuhin Co.) adjusted to 0.4 mM with tris hydrochloride buffer of pH 8.4 was added thereto. The absorbance was determined and then the initial reaction rate was determined. A control was prepared in the same manner as that described above except that the solution of the compound to be tested was replaced with 10 μl of tris hydrochloride buffer adjusted to pH 8.4. The absorbance was determined with MICROPLATE READER Model 3550-UV (a product of […]) at a wave length of 405 nm at intervals of 15 seconds for 16 minutes. The negative logarithm (pIC50) of a concentration of the test compound which inhibits 50% of the activity (initial rate) of the thrombin in the absence of the test compound was determined, and employed as the index of the activity of inhibiting thrombin.

[1] = molecular target: T2, activated human blood coagulation factor X (Homo sapiens, UniProt P00742); assay: Determination of activity of inhibiting the activated blood-coagulation factor X; details: negative logarithm of concentration inhibiting 50% of initial rate; pH 8.4, room temperature; read-out: Activity of inhibiting activated blood coagulation factor X (pIC50) (converted)
T2 construct: purchased Enzyme Research Co
Description: Determination of Activity of Inhibiting the Activated Blood-Coagulation Factor X
130 μl of 100 mM tris hydrochloride buffer adjusted to pH 8.4 was added to 10 μl of an aqueous solution of a compound to be tested. Then 10 μl of a 0.5 unit/ml solution of activated human blood coagulation factor X (a product of Enzyme Research Co.) in tris hydrochloride of pH 8.4 was added to the resultant mixture. After the incubation at room temperature for 10 minutes, 50 μl of a solution of N-benzoyl-L-isoleucyl-L-glutamyl-glycyl-L-arginyl-P-nitroanilide hydrochloride (a product of Peptide Institute, Inc.) adjusted to 0.8 mM with tris hydrochloride (pH 8.4) was added thereto. The absorbance was determined and then the initial reaction rate was determined. A control was prepared in the same manner as that described above except that the solution of the compound to be tested was replaced with 10 μl of tris hydrochloride buffer adjusted to pH 8.4. The absorbance was determined with MICROPLATE READER Model 3550-UV (a product of BIO RAD) at a wave length of 405 nm at intervals of 15 seconds for 16 minutes.

[2] = system: blood plasma from healthy people (prothrombin time); assay: Determination of blood anticoagulating activity by prothrombin time (PT) determination method; details: negative logarithm of concentration which elongated PT of the control to twice as long; human blood plasma
Description: Determination of Blood Anticoagulating Activity:
The blood anticoagulating activity was determined by a prothrombin time (PT) determination method. The PT was determined as follows: The blood was taken from healthy people. 3.8% aqueous trisodium citrate solution was added to the blood in a volume ratio of 1:10. The blood plasma was separated by the centrifugation. 5 μl of DMSO solution containing a test compound was added to 45 μl of the blood plasma. After the incubation at room temperature for 2 minutes, a test tube containing the blood plasma solution was placed in Sysmex CA-3000 fully automatic blood coagulation determination device (a product of To a Medical Electronics Co., Ltd.), and incubated at 37° C. for 3 minutes. 100 μl of Sysmex PT II (rabbit brain tissue thromboplastin, 13.2 mM calcium chloride; a product of To a Medical Electronics Co., Ltd.) was fed into the test tube. PT was automatically determined with the device. A sample containing […] of DMSO in place of the solution of the test compound was used as the control. The negative logarithm (PT2) of the concentration of the test compound which elongated PT of the control to the twice as long was determined, and employed as the index of the blood anticoagulating activity.

T2 sequence (P00742 235-488 limits assumed): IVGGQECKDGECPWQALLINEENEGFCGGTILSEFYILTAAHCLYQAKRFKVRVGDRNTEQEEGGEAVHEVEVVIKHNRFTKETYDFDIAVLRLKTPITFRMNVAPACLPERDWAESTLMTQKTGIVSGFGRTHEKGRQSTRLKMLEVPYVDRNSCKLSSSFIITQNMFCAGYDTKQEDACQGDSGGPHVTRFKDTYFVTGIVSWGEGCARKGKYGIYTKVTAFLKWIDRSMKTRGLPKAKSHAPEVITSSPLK
T2 sequence (P00742 41-179 partner limits assumed): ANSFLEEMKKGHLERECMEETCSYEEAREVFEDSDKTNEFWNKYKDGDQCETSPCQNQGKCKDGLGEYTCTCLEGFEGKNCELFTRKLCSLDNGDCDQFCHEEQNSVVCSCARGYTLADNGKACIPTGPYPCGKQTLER

SMILES	IC50 (human thrombin) [µM]	IC50 [1] [µM]	Blood anticoagulating activity (PT2) [2]
Nc1nccc2ccc(OC[C@@H](CCC(=O)O)NC(=O)c3ccc(C(=O)N4CCCC4)cc3)cc12 [Compound of Ex. 16, (4R)-5-(1-aminoisoquinoline-7-yloxy)-4-[4-(1-pyrrolidinecarbonyl)benzoylamino]pentanoic acid mono-trifluoroacetate]	> 1000	0.0794	5.6
N=C(N)Nc1ccc(C(=O)N[C@H](CCC(=O)O)COc2ccc3ccnc(N)c3c2)cc1 [Compound of Ex. 25, (4R)-5-(1-aminoisoquinoline-7-yloxy)-4-[4-(guanidino)benzoylamino]pentanoic acid mono-trifluoroacetate]	794	0.398	
CC(=N)N1CCC(Oc2ccc(C(=O)NCCOc3cc4c(N)nccc4cc3CC(=O)C(=O)O)cc2)CC1 [Compound of Ex. 26, 3-[1-amino-7-(2-(4-(1-acetimidoyl-4-piperidyloxy)benzoylamino)ethoxy)isoquinoline-6-yl]-2-oxopropionic acid bistrifluoroacetate]	> 501	0.2	6.2
Nc1nccc2ccc(OCCNC(=O)c3ccc(C(=O)N4CCCC4)cc3)cc12 [Compound of Ex. 2, N-[2-(1-aminoisoquinoline-7-yloxy)ethyl]-4-(1-pyrrolidinecarbonyl)benzamide mono-trifluoroacetate]	251	0.251	5.5
Nc1nccc2cc(CC(=O)C(=O)O)c(OCCNC(=O)c3ccc(C(=O)N4CCCC4)cc3)cc12 [Compound of Ex. 23, 3-[1-amino-(2-(4-(1-pyrrolidinecarbonyl)benzoylamino)ethoxy)isoquinoline-6-yl]-2-oxopropionic acid mono-trifluoroacetate]	15.8	0.0251	
CCOC(=O)CC[C@H](COc1ccc2ccnc(N)c2c1)NC(=O)c1ccc(C(=O)N2CCCC2)cc1 [Compound of Ex. 17, ethyl (4R)-5-(1-aminoisoquinoline-7-yloxy)-4-[4-(1-pyrrolidinecarbonyl)benzoylamino]pentanoate mono-trifluoroacetate]	316	0.251	
Nc1nccc2cc(CC(=O)C(=O)O)c(OCCNC(=O)C3CCN(c4ccncc4)CC3)cc12 [Compound of Ex. 27, 3-[1-amino-7-(2-(4-(1-(4-pyridyl)-4-piperidine)carbonylamino)ethoxy)isoquinoline-6-yl]-2-oxopropionic acid bistrifluoroacetate]	> 501	0.251	6.2
Nc1nccc2ccc(OC[C@@H](CCC(=O)O)NC(=O)C3CCN(c4ccncc4)CC3)cc12 [Compound of Ex. 21, (4R)-5-(1-aminoisoquinoline-7-yloxy)-4-[(1-(4-pyridyl)-4-piperidine)carbamido]pentanoic acid bistrifluoroacetate]	316	0.158	
